According to US7811778B2, “Methods of screening for gastrointestinal cancer” (Vanderbilt University, priority 2006, dated 2010):
“Also recorded” adds a separate entry of the source.

Test system: emerging SPEM cells at the bases of fundic glands
Assay: Gene microarray analysis of laser-capture microdissected chief cells and emerging SPEM cells (Affymetrix Mouse 430 2.0)
Assay type: in vivo, gastrin-deficient mice
Protocol: See Nomura, S., Yamaguchi, H., Wang, T. C., Lee, J. R., and Goldenring, J. R. 2004. Alterations in gastric mucosal lineages induced by acute oxyntic atrophy in wild type and gastrin deficient mice. Amer. J. Physiol. 288:G362-G375. […] To examine this hypothesis more directly, chief cells were microdissected from the very bases of untreated gastrin knockout mice as well as SPEM cells at the base of fundic glands after 1 and 3 days of treatment with DMP-777. Total RNA was prepared from 10,000 cells isolated from 4 different mice in each group. For each of the 12 samples, linear amplification was performed and Affymetrix Mouse 2.0 gene microarrays were probed. […] Second, 30 genes were identified as being involved in G1-S interface transition, including 5 MCM proteins, BRCA1, RIS2, RAD51, TACC3 and ligase1. Immunocytochemistry was used to confirm the upregulation of MCM3 as well as TACC3 in SPEM cells located at the base of fundic glands in mice treated for 1 or 3 days with DMP-777. All of these changes are consistent with alterations moving towards a proliferative phenotype. […] See Nomura, S., Yamaguchi, H., Wang, T. C., Lee, J. R., and Goldenring, J. R. 2004. Alterations in gastric mucosal lineages induced by acute oxyntic atrophy in wild type and gastrin deficient mice. Amer. J. Physiol. 288:G362-G375. Thus the up-regulation of proteins involved in the G1/S interface is also consistent with transdifferentiation of chief cells into SPEM, since such changes would require a global transcriptome, alterations that would require unwinding of DNA and changes in gene activation including alteration in DNA methylation.
Gastrin-deficient mice were constructed by targeted disruption of the gastrin gene and were maintained on a C57BL/6 background (Nomura S, Yamaguchi H, Wang T C, Lee J R, Goldenring J R. Alterations in gastric mucosal lineages induced by acute oxyntic atrophy in wild type and gastrin deficient mice. Amer.J.Physiol. 2004; In Press). Mice were treated for 1 or 3 days with oral gavage administration of DMP-777 (a gift of DuPont Pharmaceuticals), formulated in 0.5% methylcellulose (administered orally as a gavage once daily at 350 mg/kg/day). Untreated mice were utilized as controls. Mice were sacrificed and their stomachs were excised and opened along the greater curvature and processed for frozen sections for laser capture microdissection. From the untreated Gastrin-deficient mice, chief cells were microdissected from the bases of gastric glands. The emerging SPEM cells were microdissected from the bases of fundic glands of DMP-777-treated Gastrin-deficient mice after 1 or 3 days of oral drug administration. Cell collections (10,000 cells) and extractions of total RNA were performed as previously described (Nomura S, Baxter S, Yamaguchi T, Leys C, Vartapetian A B, Fox J G, Lee J R, Wang T C, Goldenring J R. Relationship of spasmolytic polypeptide expressing metaplasia (SPEM) to pre-neoplasia in H. felis-infected mice. Gastroenterology 2004; 127:582-594).
Total RNA from microdissected cells were reverse transcribed and amplified through two rounds of linear amplification using a Nugen Ovation kit to amplify and label 10-20 ng of RNA. The resulting single-strand cDNA product was purified by binding to and elution from a Qiagen QIAQUICK® column. The cDNA product was then quantitated and 2.2 μg of the fragmented, labeled product was hybridized to Affymetrix Mouse 430 2.0 microarrays overnight, with staining and scanning performed the next day. Gene expression was analyzed among microdissected cells from 4 untreated gastrin-deficient mice 4 mice treated with DMP-777 for one day and 4 mice treated with DMP-777 for three days. The raw gene expression data (.cel files) were converted to expression values using the Affy function in R (see the Bioconductor website). […]

[1] = DMP-777-treated gastrin-deficient mice, microarray
[2] = gastrin knockout mice, 1 day of DMP-777, SPEM cells vs untreated chief cells, fold increases indicated as the exponential of 2
[3] = gastrin knockout mice, 3 days of DMP-777, SPEM cells vs untreated chief cells, fold increases indicated as the exponential of 2
[4] = gastrin-deficient mice, 350 mg/kg/day oral, 1 day, microdissected SPEM cells vs untreated chief cells
[5] = gastrin-deficient mice, 350 mg/kg/day oral, 1 day, microdissected SPEM cells vs untreated chief cells, first line for this gene
[6] = gastrin-deficient mice, 350 mg/kg/day oral, 1 day, microdissected SPEM cells vs untreated chief cells, second line for this gene
[7] = gastrin-deficient mice, 350 mg/kg/day oral, 3 days, microdissected SPEM cells vs untreated chief cells
[8] = gastrin-deficient mice, 350 mg/kg/day oral, 3 days, microdissected SPEM cells vs untreated chief cells, first line for this gene
[9] = gastrin-deficient mice, 350 mg/kg/day oral, 3 days, microdissected SPEM cells vs untreated chief cells, second line for this gene

## CCC[C@@H](NC(=O)N1C(=O)C(CC)(CC)[C@@H]1Oc1ccc(C(=O)N2CCN(C)CC2)cc1)c1ccc2c(c1)OCO2 [DMP-777]
1 and 3 days of DMP-777-treatment
  pro-apoptotic genes in the cohort of up-regulated gene transcripts: there were not any pro-apoptotic genes detected; also recorded: No pro-apoptotic genes were detected
DMP-777 1 and 3 days, at least 2 fold change
  number of up-regulated genes involved in G1-S interface transition: 30
[1]
  number of the top 50 probes for up-regulated transcripts that detect regulators of the G1/S transition: 34
  transcripts for lipase, a chief cell product: significant decrease
[2]
  BRRN1, Day 1 Fold increase, Relative to Control: 2.2 Fold
  CRIP1, Day 1 Fold increase, Relative to Control: 3.2 Fold
  EREG, Day 1 Fold increase, Relative to Control: 1.8 Fold
  EXOSC8, Day 1 Fold increase, Relative to Control: 2.6 Fold
  EXPI, Day 1 Fold increase, Relative to Control: 2.4 Fold
  FIGNL1, Day 1 Fold increase, Relative to Control: 3.3 Fold
  IL1RN, Day 1 Fold increase, Relative to Control: 4.7 Fold
  LGALS3, Day 1 Fold increase, Relative to Control: 5.5 Fold
  NELF, Day 1 Fold increase, Relative to Control: 2.1 Fold
  S100A4, Day 1 Fold increase, Relative to Control: 2.8 Fold
  TMEM40, Day 1 Fold increase, Relative to Control: 1.4 Fold
  TMEM109, Day 1 Fold increase, Relative to Control: 2.5 Fold
  TR1P13, Day 1 Fold increase, Relative to Control: 3.5 Fold
[3]
  BRRN1, Day 3 Fold Increase, Relative to Control: 3.1 Fold
  CRIP1, Day 3 Fold Increase, Relative to Control: 5.4 Fold
  EREG, Day 3 Fold Increase, Relative to Control: 4.8 Fold
  EXOSC8, Day 3 Fold Increase, Relative to Control: 2.8 Fold
  EXPI, Day 3 Fold Increase, Relative to Control: 8.4 Fold
  FIGNL1, Day 3 Fold Increase, Relative to Control: 2.7 Fold
  IL1RN, Day 3 Fold Increase, Relative to Control: 4.2 Fold
  LGALS3, Day 3 Fold Increase, Relative to Control: 7.3 Fold
  NELF, Day 3 Fold Increase, Relative to Control: 3.7 Fold
  S100A4, Day 3 Fold Increase, Relative to Control: 2.5 Fold
  TMEM40, Day 3 Fold Increase, Relative to Control: 6.9 Fold
  TMEM109, Day 3 Fold Increase, Relative to Control: 3.6 Fold
  TR1P13, Day 3 Fold Increase, Relative to Control: 3.0 Fold
[4]
  5ssca1 transcript, 1 DAY DMP-777 vs CONTROL: 8.9
  Atf3 transcript, 1 DAY DMP-777 vs CONTROL: 311.4
  Cdc2a transcript, 1 DAY DMP-777 vs CONTROL: 11.7
  Cdca1 transcript, 1 DAY DMP-777 vs CONTROL: 9.2
  Cdca5 transcript, 1 DAY DMP-777 vs CONTROL: 17.3
  CdcaS transcript, 1 DAY DMP-777 vs CONTROL: 7.3
  Cenph transcript, 1 DAY DMP-777 vs CONTROL: 25.7
  Clspn transcript, 1 DAY DMP-777 vs CONTROL: 9.5
  Crip1 transcript, 1 DAY DMP-777 vs CONTROL: 9.5
  Dcc1 transcript, 1 DAY DMP-777 vs CONTROL: 8.8
  Ereg transcript, 1 DAY DMP-777 vs CONTROL: 3.6
  ExoscB transcript, 1 DAY DMP-777 vs CONTROL: 6.2
  Fignl1 transcript, 1 DAY DMP-777 vs CONTROL: 10.2
  Gadd45b transcript, 1 DAY DMP-777 vs CONTROL: 8.6
  Il1m transcript, 1 DAY DMP-777 vs CONTROL: 25.4
  Lgals3 transcript, 1 DAY DMP-777 vs CONTROL: 46.8
  Lig1 transcript, 1 DAY DMP-777 vs CONTROL: 9.3
  Mcm6 transcript, 1 DAY DMP-777 vs CONTROL: 25.1
  Ncapg transcript, 1 DAY DMP-777 vs CONTROL: 7.5
  Pole transcript, 1 DAY DMP-777 vs CONTROL: 7.5
  Rad51 transcript, 1 DAY DMP-777 vs CONTROL: 13.5
  Rad54b transcript, 1 DAY DMP-777 vs CONTROL: 6.7
  Rfc3 transcript, 1 DAY DMP-777 vs CONTROL: 8.1
  Rfc4 transcript, 1 DAY DMP-777 vs CONTROL: 8.5
  Rrm1 transcript, 1 DAY DMP-777 vs CONTROL: 8.4
  Tk1 transcript, 1 DAY DMP-777 vs CONTROL: 10.1
  Top2a transcript, 1 DAY DMP-777 vs CONTROL: 7.3
  Trip13 transcript, 1 DAY DMP-777 vs CONTROL: 10.3
  Uhrf1 transcript, 1 DAY DMP-777 vs CONTROL: 35.3
  WDNM1 transcript, 1 DAY DMP-777 vs CONTROL: 5.2
  Wfdc2 transcript, 1 DAY DMP-777 vs CONTROL: 8.9
[5]
  Mcm5 * transcript, 1 DAY DMP-777 vs CONTROL: 18.1
  Mcm10 * transcript, 1 DAY DMP-777 vs CONTROL: 12.2
  Prc1 transcript, 1 DAY DMP-777 vs CONTROL: 7.5
  Rad51ap1 * transcript, 1 DAY DMP-777 vs CONTROL: 12.9
  Ris2* transcript, 1 DAY DMP-777 vs CONTROL: 21.5
[6]
  Mcm5 * transcript, 1 DAY DMP-777 vs CONTROL: 13.9
  Mcm10 * transcript, 1 DAY DMP-777 vs CONTROL: 6.7
  Prc1 transcript, 1 DAY DMP-777 vs CONTROL: 7.0
  Rad51ap1 * transcript, 1 DAY DMP-777 vs CONTROL: 8.7
  Ris2* transcript, 1 DAY DMP-777 vs CONTROL: 7.3
[7]
  5ssca1 transcript, 3 DAYS DMP-777 vs CONTROL: 12.3
  Atf3 transcript, 3 DAYS DMP-777 vs CONTROL: 10.1
  Cdc2a transcript, 3 DAYS DMP-777 vs CONTROL: 7.0
  Cdca1 transcript, 3 DAYS DMP-777 vs CONTROL: 8.1
  Cdca5 transcript, 3 DAYS DMP-777 vs CONTROL: 36.1
  CdcaS transcript, 3 DAYS DMP-777 vs CONTROL: 8.7
  Cenph transcript, 3 DAYS DMP-777 vs CONTROL: 10.7
  Clspn transcript, 3 DAYS DMP-777 vs CONTROL: 8.5
  Crip1 transcript, 3 DAYS DMP-777 vs CONTROL: 42.6
  Dcc1 transcript, 3 DAYS DMP-777 vs CONTROL: 10.0
  Ereg transcript, 3 DAYS DMP-777 vs CONTROL: 28.9
  ExoscB transcript, 3 DAYS DMP-777 vs CONTROL: 6.7
  Fignl1 transcript, 3 DAYS DMP-777 vs CONTROL: 6.6
  Gadd45b transcript, 3 DAYS DMP-777 vs CONTROL: 5.0
  Il1m transcript, 3 DAYS DMP-777 vs CONTROL: 18.5
  Lgals3 transcript, 3 DAYS DMP-777 vs CONTROL: 153.3
  Lig1 transcript, 3 DAYS DMP-777 vs CONTROL: 9.6
  Mcm6 transcript, 3 DAYS DMP-777 vs CONTROL: 36.4
  Ncapg transcript, 3 DAYS DMP-777 vs CONTROL: 3.2
  Pole transcript, 3 DAYS DMP-777 vs CONTROL: 11.3
  Rad51 transcript, 3 DAYS DMP-777 vs CONTROL: 10.5
  Rad54b transcript, 3 DAYS DMP-777 vs CONTROL: 6.6
  Rfc3 transcript, 3 DAYS DMP-777 vs CONTROL: 6.1
  Rfc4 transcript, 3 DAYS DMP-777 vs CONTROL: 8.4
  Rrm1 transcript, 3 DAYS DMP-777 vs CONTROL: 8.4
  Tk1 transcript, 3 DAYS DMP-777 vs CONTROL: 11.5
  Top2a transcript, 3 DAYS DMP-777 vs CONTROL: 6.4
  Trip13 transcript, 3 DAYS DMP-777 vs CONTROL: 8.6
  Uhrf1 transcript, 3 DAYS DMP-777 vs CONTROL: 8.8
  WDNM1 transcript, 3 DAYS DMP-777 vs CONTROL: 345.9
  Wfdc2 transcript, 3 DAYS DMP-777 vs CONTROL: 67.5
[8]
  Mcm5 * transcript, 3 DAYS DMP-777 vs CONTROL: 36.2
  Mcm10 * transcript, 3 DAYS DMP-777 vs CONTROL: 38.3
  Prc1 transcript, 3 DAYS DMP-777 vs CONTROL: 6.9
  Rad51ap1 * transcript, 3 DAYS DMP-777 vs CONTROL: 6.1
  Ris2* transcript, 3 DAYS DMP-777 vs CONTROL: 41.3
[9]
  Mcm5 * transcript, 3 DAYS DMP-777 vs CONTROL: 18.2
  Mcm10 * transcript, 3 DAYS DMP-777 vs CONTROL: 10.1
  Prc1 transcript, 3 DAYS DMP-777 vs CONTROL: 7.4
  Rad51ap1 * transcript, 3 DAYS DMP-777 vs CONTROL: 7.4
  Ris2* transcript, 3 DAYS DMP-777 vs CONTROL: 10.3
Gene microarray, DMP-777-treated gastrin knockout mice vs untreated
  increase in the expression of the HE4 gene: greater than 16 fold
